Reference: patent US8389557B2, “Triazole derivatives useful as Axl inhibitors” (Rigel Pharmaceuticals, Inc., priority 2005, dated 2013)

Biological target: T1, Axl (Homo sapiens, UniProt P30530)
T1 construct: endogenous in cells; host or cells: HeLa cells
T1 sequence (P30530 26-894): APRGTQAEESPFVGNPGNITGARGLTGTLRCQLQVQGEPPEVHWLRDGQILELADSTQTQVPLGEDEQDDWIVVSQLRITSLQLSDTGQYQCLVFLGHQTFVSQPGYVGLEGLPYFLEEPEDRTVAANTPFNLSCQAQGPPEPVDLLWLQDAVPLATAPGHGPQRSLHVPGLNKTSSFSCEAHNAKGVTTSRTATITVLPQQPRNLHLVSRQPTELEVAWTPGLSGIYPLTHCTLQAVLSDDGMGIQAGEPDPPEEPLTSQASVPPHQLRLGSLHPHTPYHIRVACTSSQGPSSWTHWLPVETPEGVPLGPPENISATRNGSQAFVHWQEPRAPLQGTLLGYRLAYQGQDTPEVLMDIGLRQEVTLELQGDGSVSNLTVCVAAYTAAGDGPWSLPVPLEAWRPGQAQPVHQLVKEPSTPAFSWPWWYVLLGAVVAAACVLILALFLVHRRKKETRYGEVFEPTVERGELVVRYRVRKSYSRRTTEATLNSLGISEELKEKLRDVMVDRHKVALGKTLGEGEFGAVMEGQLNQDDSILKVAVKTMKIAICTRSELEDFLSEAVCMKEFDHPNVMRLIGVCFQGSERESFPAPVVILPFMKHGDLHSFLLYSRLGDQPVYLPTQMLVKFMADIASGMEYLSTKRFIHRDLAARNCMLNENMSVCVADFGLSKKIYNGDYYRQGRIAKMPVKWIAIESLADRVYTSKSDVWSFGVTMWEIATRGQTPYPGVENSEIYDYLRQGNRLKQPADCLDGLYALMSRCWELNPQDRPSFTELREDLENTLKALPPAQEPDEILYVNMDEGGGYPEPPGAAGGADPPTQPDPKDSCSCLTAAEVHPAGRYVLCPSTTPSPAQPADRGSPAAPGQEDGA
Assay: Phospho-Akt in-cell Western assay (inhibition of Axl activity)
Assay type: cell-based
Conditions: Table 2; Hela cells, Axl antibody cross-linking stimulation, phospho-Akt chemiluminescence
How it was run: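 HeLa cells on poly-L-lysine, starved 24 h in 0.5% FCS DMEM with Axl/Fc 500 ng/mL, pre-treated with compound 1 h at 37° C. Axl stimulated 5 min by anti-Axl/anti-mouse antibody cross-linking. Fixed cells probed with anti-phospho-Akt and HRP secondary, chemiluminescence read.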

Row | IC50 | Structure (SMILES)
1 | 1000 to 10000 nM | CN1CCN(c2ccc(Nc3nc(N)nn3C(=O)c3cccc(N(C)C)c3)cc2)CC1 [compound 364, 3-amino-1-(3-(dimethylamino)phenyl)carbonyl-5-(4-(4-methylpiperazin-1-yl)phenylamino]-1H-1,2,4-triazole]

Same assay, conditions: Table 3; Hela cells, Axl antibody cross-linking stimulation, phospho-Akt chemiluminescence

Row | Structure (SMILES) | IC50
2 | CN1CCN(c2ccc(Nc3nc(N)n(C(=O)C4CC5CCC4C5)n3)cc2)CC1 (centres unmarked) [compound 365, 5-amino-1-(bicyclo[2.2.1]heptan-2-yl)carbonyl-3-[4-(4-methylpiperazin-1-yl)phenylamino]-1H-1,2,4-triazole] | > 20000 nM
3 | Nc1nc(Nc2ccc(OCCN3CCCC3)cc2)nn1C(=O)c1c[nH]c2ccccc12 [compound 366, 5-amino-1-(1H-indol-3-yl)carbonyl-3-[4-[2-(pyrrolidin-1-yl)ethoxy]phenylamino]-1H-1,2,4-triazole] | 1000 to 10000 nM
4 | Nc1nc(Nc2ccc(OCCN3CCCC3)cc2)nn1C(=O)c1cc2ccccc2s1 [compound 367, 5-amino-1-(benzo[b]thiophen-2-yl)carbonyl-3-[4-[2-(pyrrolidin-1-yl)ethoxy]phenylamino]-1H-1,2,4-triazole] | < 1000 nM
5 | Nc1nc(Nc2ccc(OCCN3CCCC3)cc2)nn1C(=O)c1ccc2sccc2c1 [compound 369, 5-amino-1-(benzo[b]thiophen-5-yl)carbonyl-3-[4-[2-(pyrrolidin-1-yl)ethoxy]phenylamino]-1H-1,2,4-triazole] | < 1000 nM

The next lines start with the values.

Row | IC50 | Structure (SMILES)
6 | < 1000 nM | Nc1nc(Nc2ccc(OCCn3ccnc3)cc2)nn1C(=O)c1ccc2cc[nH]c2c1 [compound 375, 5-amino-1-(1H-indol-6-yl)carbonyl-3-[4-[2-(imidazol-1-yl)ethoxy]phenylamino]-1H-1,2,4-triazole]
7 | < 1000 nM | Nc1nc(Nc2ccc(OCCn3ccnc3)cc2)nn1C(=O)c1ccc2sccc2c1 [compound 377, 5-amino-1-(benzo[b]thiophen-5-yl)carbonyl-3-[4-[2-(imidazol-1-yl)ethoxy]phenylamino]-1H-1,2,4-triazole]
8 | < 1000 nM | Nc1nc(Nc2ccc(OCCn3ccnc3)cc2)nn1C(=O)c1cc2ccccc2s1 [compound 379, 5-amino-1-(benzo[b]thiophen-2-yl)carbonyl-3-[4-[2-(imidazol-1-yl)ethoxy]phenylamino]-1H-1,2,4-triazole]
9 | < 1000 nM | Nc1nc(Nc2ccc(OCCN3CC[C@H](F)C3)cc2)nn1C(=O)c1ccc2c(c1)OCCO2 [compound 386, 5-amino-1-(1,4-benzodioxan-6-yl)carbonyl-3-[4-[2-((S)-3-fluoropyrrolidin-1-yl)ethoxy]phenylamino]-1H-1,2,4-triazole]
10 | < 1000 nM | Nc1nc(Nc2ccc(OCCN3CC[C@H](F)C3)cc2)nn1C(=O)c1ccc2cc[nH]c2c1 [compound 388, 5-amino-1-(1H-indol-6-yl)carbonyl-3-[4-[2-((S)-3-fluoropyrrolidin-1-yl)ethoxy]phenylamino]-1H-1,2,4-triazole]

Same assay, conditions: Table 4; Hela cells, Axl antibody cross-linking stimulation, phospho-Akt chemiluminescence

Row | IC50 | Structure (SMILES)
11 | 1000 to 10000 nM | Nc1nc(Nc2ccc(OCCN3CCCC3)cc2)n(C(=O)c2cc3ccccc3s2)n1 [compound 368, 3-amino-1-(benzo[b]thiophen-2-yl)carbonyl-5-[4-[2-(pyrrolidin-1-yl)ethoxy]phenylamino]-1H-1,2,4-triazole]
12 | < 1000 nM | Nc1nc(Nc2ccc(OCCn3ccnc3)cc2)n(C(=O)c2ccc3cc[nH]c3c2)n1 [compound 376, 3-amino-1-(1H-indol-6-yl)carbonyl-5-[4-[2-(imidazol-1-yl)ethoxy]phenylamino]-1H-1,2,4-triazole]
13 | < 1000 nM | Nc1nc(Nc2ccc(OCCn3ccnc3)cc2)n(C(=O)c2ccc3sccc3c2)n1 [compound 378, 3-amino-1-(benzo[b]thiophen-5-yl)carbonyl-5-[4-[2-(imidazol-1-yl)ethoxy]phenylamino]-1H-1,2,4-triazole]
14 | < 1000 nM | Nc1nc(Nc2ccc(OCCN3CC[C@H](F)C3)cc2)n(C(=O)c2ccc3c(c2)OCCO3)n1 [compound 387, 3-amino-1-(1,4-benzodioxan-6-yl)carbonyl-5-[4-[2-((S)-3-fluoropyrrolidin-1-yl)ethoxy]phenylamino]-1H-1,2,4-triazole]
15 | < 1000 nM | Nc1nc(Nc2ccc(OCCN3CC[C@H](F)C3)cc2)n(C(=O)c2ccc3cc[nH]c3c2)n1 [compound 389, 3-amino-1-(1H-indol-6-yl)carbonyl-5-[4-[2-((S)-3-fluoropyrrolidin-1-yl)ethoxy]phenylamino]-1H-1,2,4-triazole]

Same assay, conditions: Table 5; Hela cells, Axl antibody cross-linking stimulation, phospho-Akt chemiluminescence

Row | IC50 | Structure (SMILES)
16 | > 20000 nM | CS(=O)(=O)N1CCC(Nc2nc(N)n(C(=O)c3c(F)cccc3F)n2)CC1 [compound 392, 5-amino-1-(2,6-difluorophenyl)carbonyl-3-(1-methylsulfonylpiperidin-4-yl)amino-1H-1,2,4-triazole]

Same assay, conditions: Table 6; Hela cells, Axl antibody cross-linking stimulation, phospho-Akt chemiluminescence

Row | IC50 | Structure (SMILES)
17 | > 20000 nM | CS(=O)(=O)N1CCC(Nc2nc(N)nn2C(=O)c2c(F)cccc2F)CC1 [compound 391, 3-amino-1-(2,6-difluorophenyl)carbonyl-5-(1-methylsulfonylpiperidin-4-yl)amino-1H-1,2,4-triazole]

Same assay, conditions: inhibition of Axl activity, phospho-Akt in-cell Western assay; Table 1

Row | Structure (SMILES) | IC50
18 | CN1CCN(c2ccc(Nc3nc(N)n(C(=O)c4cccc(N(C)C)c4)n3)cc2)CC1 [compound 363, 5-amino-1-(3-(dimethylamino)phenyl)carbonyl-3-[4-(4-methylpiperazin-1-yl)phenylamino]-1H-1,2,4-triazole] | < 1000 nM
19 | CC(C)(C)Oc1ccc(C(=O)n2nc(Nc3ccc(OCCn4ccnc4)cc3)nc2N)cc1 [compound 370, 5-amino-1-(4-(tert-butoxy)phenyl)carbonyl-3-[4-[2-(imidazol-1-yl)ethoxy]phenylamino]-1H-1,2,4-triazole] | < 1000 nM
20 | CC(C)(C)Oc1cccc(C(=O)n2nc(Nc3ccc(OCCn4ccnc4)cc3)nc2N)c1 [compound 371, 5-amino-1-(3-(tert-butoxy)phenyl)carbonyl-3-[4-[2-(imidazol-1-yl)ethoxy]phenylamino]-1H-1,2,4-triazole] | 1000 to 10000 nM
21 | CC(C)Oc1ccc(C(=O)n2nc(Nc3ccc(OCCn4ccnc4)cc3)nc2N)cc1 [compound 372, 5-amino-1-(4-(iso-propoxy)phenyl)carbonyl-3-[4-[2-(imidazol-1-yl)ethoxy]phenylamino]-1H-1,2,4-triazole] | < 1000 nM
22 | CN(C)c1ccc(C(=O)n2nc(Nc3ccc(OCCn4ccnc4)cc3)nc2N)cc1 [compound 373, 5-amino-1-(4-(dimethylamino)phenyl)carbonyl-3-[4-[2-(imidazol-1-yl)ethoxy]phenylamino]-1H-1,2,4-triazole] | < 1000 nM
23 | CC(C)(C)Oc1ccc(C(=O)n2nc(Nc3ccc(OCCN4CC[C@H](F)C4)cc3)nc2N)cc1 [compound 384, 5-amino-1-(4-(tert-butoxy)phenyl)carbonyl-3-[4-[2-((S)-3-fluoropyrrolidin-1-yl)ethoxy]phenylamino]-1H-1,2,4-triazole] | < 1000 nM

Further lines, results first:

Row | IC50 | Structure (SMILES)
24 | 1000 to 10000 nM | CN(C)c1cccc(C(=O)n2nc(Nc3ccc(OCCn4ccnc4)cc3)nc2N)c1 [compound 374, 5-amino-1-(3-(dimethylamino)phenyl)carbonyl-3-[4-[2-(imidazol-1-yl)ethoxy]phenylamino]-1H-1,2,4-triazole]
25 | < 1000 nM | COc1ccc(C(=O)n2nc(Nc3ccc(OCCN4CCCC4)cc3)nc2N)cc1F [compound 381, 5-amino-1-(3-fluoro-4-methoxyphenyl)carbonyl-3-[4-[2-(pyrrolidin-1-yl)ethoxy]phenylamino]-1H-1,2,4-triazole]
26 | < 1000 nM | Nc1nc(Nc2ccc(OCCN3CCCC3)cc2)nn1C(=O)c1ccc(N2CCOCC2)cc1 [compound 382, 5-amino-1-(4-(morpholin-4-yl)phenyl)carbonyl-3-[4-[2-(pyrrolidin-1-yl)ethoxy]phenylamino]-1H-1,2,4-triazole]
27 | < 1000 nM | CN1CCN(c2ccc(C(=O)n3nc(Nc4ccc(OCCN5CCCC5)cc4)nc3N)cc2)CC1 [compound 383, 5-amino-1-(4-(4-methylpiperazin-1-yl)phenyl)carbonyl-3-[4-[2-(pyrrolidin-1-yl)ethoxy]phenylamino]-1H-1,2,4-triazole]
28 | < 1000 nM | CN(C)c1ccc(C(=O)n2nc(Nc3ccc(OCCN4CC[C@H](F)C4)cc3)nc2N)cc1 [compound 385, 5-amino-1-(4-(dimethylamino)phenyl)carbonyl-3-[4-[2-((S)-3-fluoropyrrolidin-1-yl)ethoxy]phenylamino]-1H-1,2,4-triazole]
29 | < 1000 nM | COc1c(F)cc(C(=O)n2nc(Nc3ccc(OCCN4CCCC4)cc3)nc2N)cc1F [compound 390, 5-amino-1-(3,5-difluoro-4-methoxyphenyl)carbonyl-3-[4-[2-(pyrrolidin-1-yl)ethoxy]phenylamino]-1H-1,2,4-triazole]
